The text below walks through data of patent US20100247617A1, “Transdermal Administration Of (2S)-(4E)-N-Methyl-5-(3-(5-Isopropoxypyridin)yl)-4-Penten-2-Amine” (TARGACEPT, INC., priority 2007, published 2010).

Data set [1] can be described thus: Maximal solubility in water. The class given is physicochemical.
Data set [2] in a line: In vitro skin penetration study using pig-ear (Bronaugh diffusion cells). To be noted: receiver PBS pH 7.4, 32° C.; for Cumulative penetrated amount: 24-hour period, pig-ear skin; for Steady state flux: pig-ear skin approx. 900 μm, average ± SD. The format is in vitro ADME. As to the method:
Bronaugh diffusion cells were used for in vitro penetration studies, which were carried out to determine the flux (i.e. the speed by which the compound penetrates skin) and total cumulated amount penetrated of ^14C-active ingredient. The compound was dissolved in water at two concentrations, 35 and 135 mg/g. Pig-ear full-thickness skin (dermatomed to approx. 900 μm thick) was used as the membrane. The receiver compartment contained phosphate buffered saline (pH 7.4) and the temperature was maintained at 32° C. The compound solutions were applied onto the stratum corneum. Receiver compartment samples (2, 4, 8 12 and 14 h) were assayed by liquid scintillation counting. The transdermal flux (μg/cm^2/h) can be determined from the steady-state slope of the plot of the cumulative amount of active ingredient permeating through the skin versus time. After steady-state was established, the linear portion of the plot was used to calculate the flux from the slope.
The cumulative penetrated amounts and derived steady state fluxes for both tested concentrations during a 24-hour period are presented in FIG. 1 and TABLE 1.

Setting [3] is: test concentration 35 mg/g water.
The mark [4] stands for this setting: test concentration 135 mg/g water.

In the case of `CN[C@@H](C)C/C=C/c1cncc(OC(C)C)c1` [active ingredient, (2S)-(4E)-N-methyl-5-(3-(5-isopropoxypyridin)yl)-4-penten-2-amine], the “maximal solubility in water” value in data set [1] was determined as 200 mg/g. In addition, the Cumulative penetrated amount in data set [2] (setting [3]) stood at 27 ± 36 μg/cm^2; in data set [2] (setting [4]), 55 ± 88 μg/cm^2. In addition, the Steady state flux came to 2.6 ± 3.6 μg/cm^2/h in data set [2] (setting [3]) and 5.1 ± 9.0 μg/cm^2/h in data set [2] (setting [4]).
